Measurements reported in PMC8895463 (Journal of Agricultural and Food Chemistry, 2022).

Biological target: T1, CYP3A4 (Homo sapiens, UniProt P08684)
T1 construct: recombinant; E. coli microsomes; with NADPH cytochrome P450 reductase (POR, P16435), coexpressed
Assay: fluorogenic Vivid BOMR substrate assay with recombinant CYP3A4/POR E. coli microsomes
Assay type: biochemical

T1 sequence (P08684 13-503 S18F): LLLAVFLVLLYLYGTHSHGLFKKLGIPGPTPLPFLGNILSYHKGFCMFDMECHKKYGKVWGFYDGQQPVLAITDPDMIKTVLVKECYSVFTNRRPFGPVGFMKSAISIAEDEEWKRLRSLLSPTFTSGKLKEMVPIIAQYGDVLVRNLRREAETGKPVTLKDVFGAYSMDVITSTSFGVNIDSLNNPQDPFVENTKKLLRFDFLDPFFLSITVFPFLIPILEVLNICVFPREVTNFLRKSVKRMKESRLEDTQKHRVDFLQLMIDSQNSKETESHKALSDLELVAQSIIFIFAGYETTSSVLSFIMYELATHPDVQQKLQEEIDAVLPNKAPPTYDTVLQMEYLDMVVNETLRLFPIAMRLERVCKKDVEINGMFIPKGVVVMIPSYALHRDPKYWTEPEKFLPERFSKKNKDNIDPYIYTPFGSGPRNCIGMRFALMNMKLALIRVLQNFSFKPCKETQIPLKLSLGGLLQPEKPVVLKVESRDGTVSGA
T1 sequence (P16435 2-677, further chain): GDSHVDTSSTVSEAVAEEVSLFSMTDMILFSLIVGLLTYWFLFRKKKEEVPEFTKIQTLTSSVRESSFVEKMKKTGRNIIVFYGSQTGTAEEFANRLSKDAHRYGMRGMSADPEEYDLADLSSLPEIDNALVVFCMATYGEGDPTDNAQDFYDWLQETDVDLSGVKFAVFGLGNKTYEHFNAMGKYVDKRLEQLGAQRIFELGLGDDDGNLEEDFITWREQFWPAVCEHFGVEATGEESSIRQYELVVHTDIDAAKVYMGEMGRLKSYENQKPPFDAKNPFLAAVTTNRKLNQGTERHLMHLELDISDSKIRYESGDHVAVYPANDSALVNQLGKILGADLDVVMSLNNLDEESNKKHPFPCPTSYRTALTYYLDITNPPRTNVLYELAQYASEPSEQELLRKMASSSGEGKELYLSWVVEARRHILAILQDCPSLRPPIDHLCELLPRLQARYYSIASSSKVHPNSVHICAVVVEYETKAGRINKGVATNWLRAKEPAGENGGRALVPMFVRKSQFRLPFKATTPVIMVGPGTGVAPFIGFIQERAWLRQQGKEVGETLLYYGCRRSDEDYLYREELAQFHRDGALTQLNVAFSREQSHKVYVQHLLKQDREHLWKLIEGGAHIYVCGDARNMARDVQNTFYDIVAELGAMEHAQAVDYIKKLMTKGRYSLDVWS

Compound `COc1ccc(-c2cc(=O)c3c(O)cc(O)cc3o2)cc1-c1c(O)cc(O)c2c(=O)cc(-c3ccc(O)cc3)oc12` [bilobetin] has an IC50 of 12.9 µM.
